This assay has as its system M. tuberculosis H37Rv growth inhibition with meropenem. The experiment in a line: dose response, H37Rv, with and without meropenem (AID 434987).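 Also: growth over 7 days at 37 °C before Alamar Blue read on day 9.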
[1] abbreviates: M. tuberculosis H37Rv growth inhibition, measured here: IC50 without meropenem.
Setting [2] is: M. tuberculosis H37Rv growth inhibition, measured here: IC90 without meropenem.
Setting [3] is: measured here: IC90 with meropenem.

The source made the active and inactive calls. No rule for the calls is given here.

A word on the IC50: it is the concentration that inhibits the measured activity by half. By IC90 is commonly meant the concentration needed for an effect of 90%. Low readings indicate an effect from little substance, high ones a need for much substance.

On to `COc1ccc(Cl)cc1NC(=O)C/C(C)=N/NC(=O)CC#N`, for which the concentration for half-maximal inhibition (IC50) is 7.99 µM. This molecule had an IC50 under setting [1] of over 100 µM. Also, the 90% effect concentration (IC90) under setting [2] is over 100 µM. The molecule also had an IC90 under setting [3] of over 100 µM.

Turning to `COc1ccccc1-c1cc(C(=O)Nc2c(C)n(C)n(-c3ccccc3)c2=O)no1`, the half-maximal inhibitory concentration (IC50) was 6.68 µM. Under setting [1], this molecule yielded an IC50 of 39.2 µM. This molecule also gave an IC90 under setting [2] of 88.1 µM. This molecule also displayed a concentration for an effect of 90% (IC90) under setting [3] of 19.5 µM.

In the case of `Cc1cc(C)c(N=Cc2c(O)n(-c3nccs3)c(=O)c3ccccc23)c(C)c1`, the IC50 was > 100 µM (inactive). Also, the half-maximal inhibitory concentration (IC50) under setting [1] is over 100 µM. Moreover, the IC90 under setting [2] was over 100 µM. For the same molecule, the IC90 under setting [3] is over 100 µM.

Take `CC[C@@]1(c2ccccc2OC)C(=O)N(C(=O)OC)N1C(=O)OC`: the IC50 was 13.9 µM. Besides, the IC50 under setting [1] is over 100 µM. Besides, the IC90 under setting [2] was over 100 µM. The molecule further registered an IC90 under setting [3] of over 100 µM.

Take `COc1ccc(CNC(=O)C2CCN(S(=O)(=O)c3c(C)noc3/C=C/N(C)C)CC2)cc1`: the IC50 was > 100 µM (inactive). For the same molecule, under setting [1], the IC50 is over 100 µM. For the same molecule, under setting [2], the IC90 was over 100 µM. In addition, the IC90 under setting [3] was over 100 µM.

As to `CCNC(=O)CCn1nc(-c2ccc(Cl)cc2)c2ccccc2c1=O`, the concentration for half-maximal inhibition (IC50) was 23.6 µM. Also, under setting [1], the IC50 was over 100 µM. The same molecule yielded an IC90 under setting [2] of over 100 µM. In addition, under setting [3], the concentration for an effect of 90% (IC90) is over 100 µM.

Turning to `Cc1nn(C)c(C)c1NC(=O)CCCSc1nc(-c2ccco2)cc(C(F)(F)F)n1`, the IC50 was > 100 µM (inactive). Further, under setting [1], the IC50 was over 100 µM. For the same molecule, under setting [2], the IC90 was over 100 µM. The molecule also gave an IC90 under setting [3] of over 100 µM.

For `COc1ccc(OC)c(-c2cc(C(=O)Nc3c(C)nn(Cc4ccccc4C)c3C)no2)c1`, the IC50 is > 100 µM (inactive). This molecule also returned a concentration for half-maximal inhibition (IC50) under setting [1] of over 100 µM. Further, the concentration for an effect of 90% (IC90) under setting [2] is over 100 µM. Further, under setting [3], the IC90 was over 100 µM.

For the molecule `CC1CC(C)(C)n2c(O)c(N=NC(N)=S)c3cccc1c32` (stereo not drawn), the IC50 is > 100 µM (inactive). Under setting [1], this molecule came in with an IC50 of over 100 µM. In addition, the IC90 under setting [2] is over 100 µM. Further, the IC90 under setting [3] is over 100 µM.

Turning to `C/C(=N\NC(=O)c1ccccc1O)c1ccc(Br)s1`, the IC50 was > 100 µM (inactive). In addition, under setting [1], the half-maximal inhibitory concentration (IC50) is over 100 µM. The IC90 under setting [2] was over 100 µM. Further, the IC90 under setting [3] is over 100 µM.

For `COc1ccc(-c2cc(-c3ccc(OC)cc3)nc(-c3ccc4c(c3)NC(=O)CO4)c2)cc1`, the IC50 was > 100 µM (inactive). Under setting [1], this molecule came in with a half-maximal inhibitory concentration (IC50) of over 100 µM. Under setting [2], this molecule returned a 90% effect concentration (IC90) of over 100 µM. In addition, the IC90 under setting [3] is over 100 µM.

Regarding `CN(C)S(=O)(=O)c1ccc(NC(=O)c2cc3ccccc3o2)cc1`, the IC50 is > 100 µM (inactive). This molecule also displayed a concentration for half-maximal inhibition (IC50) under setting [1] of over 100 µM. The molecule also yielded an IC90 under setting [2] of over 100 µM. This molecule also gave a concentration for an effect of 90% (IC90) under setting [3] of over 100 µM.

As to `Cc1cccc(NC(=S)NC2CC3C=CC2C3)c1` (stereo not drawn), the IC50 was 22.3 µM (inactive). Under setting [1], the IC50 worked out at 23.8 µM. This molecule came in with an IC90 under setting [2] of over 100 µM. Further, the IC90 under setting [3] was over 100 µM.

As for `Cc1ccc(C(=O)Nc2ccc(N3CCN(C(=O)c4cccs4)CC3)cc2)c(Cl)c1`, the IC50 is > 100 µM (inactive). Further, under setting [1], the half-inhibitory concentration (IC50) is over 100 µM. The molecule also displayed a 90% effect concentration (IC90) under setting [2] of over 100 µM. In addition, the IC90 under setting [3] is over 100 µM.

For `O=C(NCCC1=CCCCC1)c1ccc(Cl)c([N+](=O)[O-])c1`, the IC50 was 25.9 µM (inactive). The molecule further gave a half-maximal inhibitory concentration (IC50) under setting [1] of 54.3 µM. Moreover, the IC90 under setting [2] was over 100 µM. Moreover, the IC90 under setting [3] was determined as 30.2 µM.

As for `CCCCOc1ccc(/C=N/Nc2cc(N3CCOCC3)nc(C)n2)cc1`, the IC50 was > 100 µM (inactive). The molecule also had an IC50 under setting [1] of over 100 µM. Under setting [2], this molecule gave an IC90 of over 100 µM. Further, the IC90 under setting [3] was over 100 µM.

With `Cc1cccc(C)c1OCC(=O)NNC(=O)CNC(=O)c1ccc(OC(F)F)cc1`, the IC50 is 88.3 µM (inactive). Moreover, under setting [1], the half-inhibitory concentration (IC50) was over 100 µM. For the same molecule, under setting [2], the IC90 was over 100 µM. Moreover, the IC90 under setting [3] was found to be 98.1 µM.

`CCCC(=O)Nc1nc(-c2ccccc2)ns1`: the IC50 is > 100 µM (inactive). The half-maximal inhibitory concentration (IC50) under setting [1] is over 100 µM. This molecule came in with an IC90 under setting [2] of over 100 µM. The same molecule displayed an IC90 under setting [3] of over 100 µM.

Consider `O=C(CNC(=O)c1ccc(Br)cc1)NCC(=O)OCc1ccc(Cl)cc1`, for which the IC50 is 12.4 µM. The molecule also came in with a 50% inhibitory concentration (IC50) under setting [1] of 56.9 µM. The molecule further returned a 90% effect concentration (IC90) under setting [2] of over 100 µM. Moreover, under setting [3], the IC90 was over 100 µM.

Regarding `CCc1ccc(NC(=O)C2C3/C=C\CCCCC32)cc1` (stereo not drawn), the IC50 is 72 µM (inactive). The same molecule displayed an IC50 under setting [1] of over 100 µM. Also, the IC90 under setting [2] is over 100 µM. Under setting [3], this molecule displayed a 90% effect concentration (IC90) of over 100 µM.

In the case of `O=C(NN=C1CCCC1)c1cccs1`, the IC50 was 23.6 µM (inactive). This molecule also came in with a concentration for half-maximal inhibition (IC50) under setting [1] of 50.3 µM. This molecule also returned an IC90 under setting [2] of over 100 µM. For the same molecule, the concentration for an effect of 90% (IC90) under setting [3] is over 100 µM.

Regarding `CC/C(=N\NC(=S)NC(C)C)c1ccc(OC)c(OC)c1`, the IC50 was 12.9 µM (inactive). This molecule gave an IC50 under setting [1] of 20.2 µM. Under setting [2], this molecule displayed a 90% effect concentration (IC90) of 24.7 µM. Besides, the IC90 under setting [3] came to 15.5 µM.

(Values after PubChem BioAssay AID434987 (Southern Research Specialized Biocontainment Screening …, 2010).)
